The results in this text go back to ChEMBL document CHEMBL1154923 (J Med Chem, 2010).

In the assay the target is T1, Rhodopsin kinase GRK7 (Homo sapiens, UniProt Q8WTQ7).
T1 sequence (Q8WTQ7 whole entry): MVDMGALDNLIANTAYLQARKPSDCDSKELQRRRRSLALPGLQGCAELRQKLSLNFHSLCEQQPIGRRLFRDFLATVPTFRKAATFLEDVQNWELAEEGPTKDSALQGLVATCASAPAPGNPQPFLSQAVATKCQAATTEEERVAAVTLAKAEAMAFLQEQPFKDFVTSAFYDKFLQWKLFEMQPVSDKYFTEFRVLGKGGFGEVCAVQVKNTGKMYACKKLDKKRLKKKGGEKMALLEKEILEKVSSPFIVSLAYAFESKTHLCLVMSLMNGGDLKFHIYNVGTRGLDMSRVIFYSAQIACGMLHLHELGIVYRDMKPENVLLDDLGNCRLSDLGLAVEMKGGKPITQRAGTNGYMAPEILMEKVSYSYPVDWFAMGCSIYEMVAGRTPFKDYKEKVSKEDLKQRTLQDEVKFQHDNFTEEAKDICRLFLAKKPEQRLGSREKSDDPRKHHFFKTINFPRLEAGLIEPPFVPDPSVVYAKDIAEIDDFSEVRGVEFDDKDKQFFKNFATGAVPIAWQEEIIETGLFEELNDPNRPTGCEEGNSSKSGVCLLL
In words: Inhibition of GRK7-mediated bovine tubulin phosphorylation by scintillation counting.

`O=C(N[C@@H]1CNCCC[C@H]1OC(=O)c1cc(O)c(C(=O)c2c(O)cccc2C(=O)O)c(O)c1)c1ccc(O)cc1` [BALANOL] registered an IC50 of 180 nM.
